Experimental findings from PMC5630639 (Scientific Reports, 2017) are described below.

“Also recorded” adds a separate entry of the source.

Data set [1] deals with MGC-803 cells. In words: Annexin V-FITC/PI apoptosis analysis by flow cytometry. To be noted: 24 h. Type of data set: cell-based, human. As for the experimental part:
(§1) We next evaluated whether 28 induces apoptosis in MGC-803 cells by flow cytometry analysis of propidium iodide (PI) and Annexin V stained cells. […] When MGC-803 cells were incubated with 28 at 0.1, 0.2, and 0.3 μM for 24 h, the percentages of early apoptotic cells were 12.4%, 40.5%, and 49.7%, respectively and those of late apoptotic cells 2.1%, 10.1%, and 9.4%, respectively (Fig. 4A). Bcl-2 family proteins were crucial components of mitochondrial stress-induced cellular apoptosis. Thus, the expression of apoptosis-related proteins was also determined.
(§2) An Annexin V-FITC/PI kit (KeyGEN BioTECH, Nanjing, China) was used to detect apoptosis. Cells were seeded in 6-well plates and treated with 0, 0.1, 0.2 and 0.3 µM of 28 for 24 h. Then MGC-803 cells were collected and suspended in binding buffer containing Annexin V-FITC (0.5 mg/mL) and PI (0.5 mg/mL) and incubated in dark for 20 min and analyzed by flow cytometry (Becton, Dickinson and Company, NJ). The apoptosis related proteins of western blot analysis were conducted according to our previously reported method[31],[32].

Data set [2] deals with MGC-803 cells. Briefly: Western blotting of apoptosis-related proteins. Type of data set: cell-based, human. The conditions noted are these: concentration-dependent. As for the experimental part: as §1, §2
Data set [3] has as its system interphase microtubules in MGC-803 cells. Briefly: Immunofluorescence staining of tubulin. It counts as cell-based, human. To be noted: 24 h. Here is the method:
As the microtubule system plays a vital role in the maintenance of cell shape and basic cellular functions, an immunofluorescence staining assay was performed to study whether compound 28 could disrupt the microtubule dynamics in living cells.
Cell climbing slices were sterilized and placed on the bottom of a 24-well plate for 24 h before MGC-803 cells were incubated in DMSO, different concentrations of 28 or CA-4P solutions were added. The next day the cell climbing slices were fixed by 4% paraformaldehyde for 15 min after washed by PBS for 3 times. 0.5% Triton-X-100 was added and shaked for 20 min. 0.1% BSA was used to block for 30 min and then removed. The cell climbing slices were added α-tubulin antibody (1:100) and incubated overnight at 4 °C in humid box. On the third day the humid box was taken out and balanced at 37 °C for 30 min. The cell climbing slices were washed by PBST for 3 times for each of 3 minutes and coated with FITC antibody (1:500) in a dark place for 1 h at room temperature. DAPI was used to re-stained for 5 min and then removed. The cell climbing slices were sealing by an anti-fluorescence quenching agent and images collected by Laser scanning confocal microscope (Nikon, Japan).

Another data set deals with tubulin. In words: In vitro tubulin polymerization assay. To be noted: 5.6 mg/ml tubulin, absorbance 340 nm, 37 °C; read-out: tubulin polymerization inhibition IC50. It counts as biochemical. Here is the method: The in vitro tubulin polymerization inhibitory activity of 28 was then evaluated. Purified and unpolymerized tubulin was incubated with 28 at indicated concentrations, and tubulin polymerization was measured by the method originally described by D. Bone et al.[46].
An amount of 5.6 mg/ml tubulin was resuspended in PEM buffer [80 mM PIPES (pH 6.9), 1 mM EGTA, 0.5 mM MgCl2, 1 mM […], 10.2% (v/v) glycerol] and then was preincubated with compound 28 or vehicle DMSO on ice. The reaction was monitored by a spectrophotometer in absorbance at 340 nm at 37 °C every 5 min. The final concentrations of 28 were listed as follows: 0, 1, 2, and 4 µM.

The test system of the next data set is MGC-803 xenograft. Briefly: MGC-803 xenograft model in nude mice. To be noted: for average tumor weight: 21 days (control 1.23 ± 0.28); for mean tumor volume at end of observation period: 21 days (control 1665.98 ± 568.36). It counts as in vivo, BALB/c nude mice. Here is the method: To evaluate the potential antitumor effects of 28 in vivo, a MGC-803 xenograft model were established in nude mice by subcutaneously injecting MGC-803 cells at its logarithmic phase into the right flank of mice[56]. Tumor bearing mice were then randomly assigned to five groups (control, 100 mg/kg CA-4P, 25, 50, 100 mg/kg 28) with 10 mice per group. Then, the mice were gavaged with saline (control), CA-4P and different concentrations of 28 in saline solution daily. […] At the end of the observation period, mean tumor volumes of control, CA-4P, 25, 50, and 100 mg/kg 28 groups were 1665.98 ± 568.36 mm^3, 642.61 ± 449.92 mm^3, 788.18 ± 435.92 mm^3, 1125.93 ± 668.25 mm^3 and 1273.88 ± 513.69 mm^3, respectively. […] The antitumor activity of 28 in vivo was similar to that of CA-4P.
Animals were treated according to protocols established by the ethics committee of Zhengzhou University and the in vivo experiments were carried out in accordance with the approved guidelines and approved by the ethics committee of Zhengzhou University. BALB/c nude mice (18 g, aged 4–5 weeks) were purchased from Human SJA Laboratory Animal Co. Ltd. (Hunan, China). Mice were subcutaneously implanted with MGC-803 cells (5 × 10^6 cells per mouse) on the right flank of nude mice. Once tumor volumes reached to approximately 100 mm^3, the mice were randomly divided into corresponding saline, CA-4P (100 mg/kg), 28 (100 mg/kg), 28 (50 mg/kg) and 28 (25 mg/kg) treatment groups (n = 10 mice for each group). The treatment groups received intragastric administration of 28 and CA-4P per day for a period of 21 days. Then, the mice were euthanized and tumors isolated and weighed. Their body weights were measured and tumor sizes determined by vernier caliper measurement every other day.

On to `COc1cc(N2C(=O)[C@H](c3cccs3)[C@H]2c2cccc(N=[N+]=[N-])c2)cc(OC)c1OC` (relative stereo) [Compound 28, trans-4-(3-azidophenyl)-3-(thiophen-2-yl)-1-(3,4,5-trimethoxyphenyl)azetidin-2-one], for which the early apoptotic cells with MGC-803 cells [1] (0.1 μM) was 12.4%; in the data set on MGC-803 cells [1] (0.2 μM) it was 40.5%; in the data set on MGC-803 cells [1] (0.3 μM), 49.7%. Further, the late apoptotic cells in the data set with MGC-803 cells [1] (0.1 μM) turned out to be 2.1%; in the data set with MGC-803 cells [1] (0.2 μM) it was 10.1%; in the data set on MGC-803 cells [1] (0.3 μM), 9.4%. The “expression of Bcl-2” value in the data set on MGC-803 cells [2] is “decreased”. For the same compound, the “expression of cleaved caspase-3, caspase-9 and PARP” value with MGC-803 cells [2] is “increased”. The “protein expression of BAX” value in the data set with MGC-803 cells [2] is recorded as “increased”. Moreover, the results for the “depolymerization of interphase microtubules” value in data set [3] (0.075 μM) and in data set [3] (0.3 μM) were “moderately depolymerized” and “much stronger”, respectively. Also, in the data set with tubulin, the IC50 was 2260 nM. For the same compound, the “inhibitory rate (tumor weight)” value in the data set with MGC-803 xenograft (25 mg/kg, intragastric daily, 21 days) was found to be 59.34%; in the data set on MGC-803 xenograft (50 mg/kg, intragastric daily, 21 days), 30.78%; in the data set with MGC-803 xenograft (100 mg/kg, intragastric daily, 21 days), 10.99%. The average tumor weight with MGC-803 xenograft (25 mg/kg, intragastric daily) was 0.53 ± 0.20 g; in the data set on MGC-803 xenograft (50 mg/kg, intragastric daily), 0.85 ± 0.32 g; with MGC-803 xenograft (100 mg/kg, intragastric daily), 1.09 ± 0.31 g. The “mean tumor volume at end of observation period” value in the data set with MGC-803 xenograft (25 mg/kg, intragastric daily) is recorded as 788.18 ± 435.92 mm^3; in the data set with MGC-803 xenograft (50 mg/kg, intragastric daily) it was 1125.93 ± 668.25 mm^3; with MGC-803 xenograft (100 mg/kg, intragastric daily), 1273.88 ± 513.69 mm^3. The tumor growth result in the data set with MGC-803 xenograft (100 mg/kg, intragastric daily) is on record as “considerable suppression of tumor growth”. In the data set on MGC-803 xenograft (oral administration, 21 days), the “body weight of mice” value is on record as “without causing significant loss of body weight; also recorded: without causing any obvious loss of body weight”.
